Measured values published in paper PMC2248166, “Quantitative peptide binding motifs for 19 human and mouse MHC class I molecules derived using positional scanning combinatorial peptide libraries” (Immunome Research, 2008).

Key:
Type in all cases: binding
H-2 D^b = H-2 D^b (Mus musculus, UniProt P01899)
HLA B*1501 = HLA B*1501 (Homo sapiens, UniProt P01889, A329T/A93T/A95T/C349S/D201E/D98Y/E187L/E204Q/E69M/E70A/K202T/N87E/Q94N/R155S/R180W/S121R/S35A/S48A/V306I/V36M/Y140S/Y91S); assay: biochemical
HLA B*1503 = HLA B*1503 (Homo sapiens, UniProt P01889, A329T/A93T/A95T/C349S/D201E/D98Y/E187L/E204Q/K202T/N87E/Q94N/R155S/R180L/S121R/S35A/V306I/V36M/Y140S/Y91S); assay: biochemical
HLA B*3501 = HLA B*3501 (Homo sapiens, UniProt P01889, A329T/A93T/A95T/C349S/D201E/D98Y/E176V/E187L/E204Q/E69T/I218V/K202T/L119I/Q94N/R155S/R180L/S121R/S35A/S48A/T118I/V127L/V306I/V36M/Y140S/Y91F)
HLA B*5101 = HLA B*5101 (Homo sapiens, UniProt P01889, A329T/A93T/A95T/C349S/D138N/D201E/D98Y/E187L/E204Q/E69T/G107R/I218V/K202T/L105A/L119W/N104I/Q94N/R106L/R155S/R180L/S101N/S121T/S35A/S48A/V306I/V36M/Y195H/Y91F)
H-2 K^d = H-2 K^d (Mus musculus, UniProt P01902)
HLA A*3001 = HLA A*3001 (Homo sapiens, UniProt P04439, D140H/D185E/E176W/F33S/G80R/H175R/K168Q/R138E/R41S); assay: biochemical
HLA B*5301 = HLA B*5301 (Homo sapiens, UniProt P01889, A329T/A93T/A95T/C349S/D201E/D98Y/E176V/E187L/E204Q/E69T/G107R/I218V/K202T/L105A/L119I/N104I/Q94N/R106L/R155S/R180L/S101N/S121R/S35A/S48A/T118I/V127L/V306I/V36M/Y140S/Y91F)
HLA A*3201 = HLA A*3201 (Homo sapiens, UniProt P04439, A270S/D101S/D185E/E176V/E277Q/F133L/G103R/G107R/G231S/H175R/I121M/I218V/I322F/K168Q/L105A/L300P/L318F/M331R/P208A/P217A/Q94H/R106L/R138Q/S129P/T104I/T323A/T345S/V100E/V321M/V358M); assay: biochemical
HLA B*5802 = HLA B*5802 (Homo sapiens, UniProt P01889, A329T/C349S/D201E/D98Y/E176V/E187L/E204Q/E69T/G107R/I218V/I90N/K202T/L105A/N104I/N87E/Q89R/Q94S/R106L/R155S/R180L/R86G/S101N/S121W/S35A/S48A/V127L/V306I/V36M/Y140S/Y91M)
H-2 D^d = H-2 D^d (Mus musculus, UniProt P01900)
HLA A*6802 = HLA A*6802 (Homo sapiens, UniProt P04439, A269V/D140Y/D185E/E176V/E277Q/E87N/F33Y/G231S/I121R/I166T/I218V/L180W/L300P/L318F/N151K/P208A/P217A/Q86R/R138H/R169H/S129P/T345S/V36M)
HLA B*5801 = HLA B*5801 (Homo sapiens, UniProt P01889, A329T/C349S/D201E/D98Y/E176V/E187L/E204Q/E69T/G107R/I218V/I90N/K202T/L105A/L119I/N104I/N87E/Q89R/Q94S/R106L/R155S/R180L/R86G/S101N/S121R/S35A/S48A/T118I/V127L/V306I/V36M/Y140S/Y91M)
H-2 K^k = H-2 K^k (Mus musculus, UniProt P04223)
HLA B*5401 = HLA B*5401 (Homo sapiens, UniProt P01889, A329T/C349S/D138N/D201E/E176V/E187T/E204Q/E69G/I76V/K202T/L119W/R155S/R180L/S121T/S35A/S48A/V127L/V306I/V36M/Y140L)
HLA B*0801 = HLA B*0801 (Homo sapiens, UniProt P01889, A93T/A95T/D138N/E176V/E187T/K202T/Q94N/R180D/S35A/V36M/Y33D/Y91F); assay: biochemical

Sequence of H-2 D^d (P01900 whole entry, looked up): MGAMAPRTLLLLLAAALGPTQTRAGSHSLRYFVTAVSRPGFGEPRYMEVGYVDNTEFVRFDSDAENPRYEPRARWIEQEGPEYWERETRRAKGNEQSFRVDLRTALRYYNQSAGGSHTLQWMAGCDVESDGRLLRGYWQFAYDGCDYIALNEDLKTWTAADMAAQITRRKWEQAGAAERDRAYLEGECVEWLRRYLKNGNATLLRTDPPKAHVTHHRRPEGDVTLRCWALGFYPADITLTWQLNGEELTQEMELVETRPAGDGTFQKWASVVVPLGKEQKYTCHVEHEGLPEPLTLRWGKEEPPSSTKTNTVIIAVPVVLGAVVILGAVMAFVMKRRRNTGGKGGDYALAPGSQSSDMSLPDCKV
Sequence of H-2 K^d (P01887 21-119): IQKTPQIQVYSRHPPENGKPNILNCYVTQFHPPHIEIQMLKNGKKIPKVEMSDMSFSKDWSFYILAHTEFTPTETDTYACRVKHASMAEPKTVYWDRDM
Sequence of H-2 K^d (P01902 22-368): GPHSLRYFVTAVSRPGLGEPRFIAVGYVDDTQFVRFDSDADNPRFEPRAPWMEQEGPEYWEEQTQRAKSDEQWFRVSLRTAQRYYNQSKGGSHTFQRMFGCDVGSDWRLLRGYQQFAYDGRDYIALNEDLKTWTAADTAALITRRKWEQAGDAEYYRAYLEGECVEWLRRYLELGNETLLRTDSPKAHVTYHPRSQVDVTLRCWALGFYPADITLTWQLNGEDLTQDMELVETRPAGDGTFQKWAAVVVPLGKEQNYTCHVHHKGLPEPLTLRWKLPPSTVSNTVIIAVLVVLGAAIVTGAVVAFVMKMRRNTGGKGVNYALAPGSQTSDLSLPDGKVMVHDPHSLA
Sequence of H-2 K^k (P01887 21-119): as the sequence (P01887 21-119) above
Sequence of H-2 K^k (P04223 22-369): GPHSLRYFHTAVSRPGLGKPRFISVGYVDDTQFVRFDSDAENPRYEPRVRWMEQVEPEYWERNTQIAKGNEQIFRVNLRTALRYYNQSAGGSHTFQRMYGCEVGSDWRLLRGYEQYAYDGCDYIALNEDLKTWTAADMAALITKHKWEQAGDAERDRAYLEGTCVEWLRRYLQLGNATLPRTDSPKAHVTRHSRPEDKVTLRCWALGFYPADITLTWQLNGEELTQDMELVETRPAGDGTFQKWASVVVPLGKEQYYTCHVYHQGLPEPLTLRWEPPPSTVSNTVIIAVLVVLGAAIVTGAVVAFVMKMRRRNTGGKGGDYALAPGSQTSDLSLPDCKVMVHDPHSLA
Sequence of H-2 D^b (P01887 21-119): as the sequence (P01887 21-119) above
Sequence of H-2 D^b (P01899 25-362): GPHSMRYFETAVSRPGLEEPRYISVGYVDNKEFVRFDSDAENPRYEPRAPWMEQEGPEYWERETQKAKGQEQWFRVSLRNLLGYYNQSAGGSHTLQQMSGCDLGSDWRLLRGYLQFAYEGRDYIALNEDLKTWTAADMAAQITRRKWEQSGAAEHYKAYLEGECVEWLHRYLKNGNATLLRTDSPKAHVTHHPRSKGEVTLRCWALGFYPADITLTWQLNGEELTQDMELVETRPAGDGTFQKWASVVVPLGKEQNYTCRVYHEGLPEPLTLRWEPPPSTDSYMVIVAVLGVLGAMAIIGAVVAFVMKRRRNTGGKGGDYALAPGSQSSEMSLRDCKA

| Sequence | Normalized average relative binding affinity(ARB) (H-2 D^b) | Normalized average relative binding affinity(ARB) (HLA B*1501) | Normalized average relative binding affinity(ARB) (HLA B*1503) | Normalized average relative binding affinity(ARB) (HLA B*3501) | Normalized average relative binding affinity(ARB) (HLA B*5101) | Normalized average relative binding affinity(ARB) (H-2 K^d) | Normalized average relative binding affinity(ARB) (HLA A*3001) | Normalized average relative binding affinity(ARB) (HLA B*5301) | Normalized average relative binding affinity(ARB) (HLA A*3201) | Normalized average relative binding affinity(ARB) (HLA B*5802) | Normalized average relative binding affinity(ARB) (H-2 D^d) | Normalized average relative binding affinity(ARB) (HLA A*6802) | Normalized average relative binding affinity(ARB) (HLA B*5801) | Normalized average relative binding affinity(ARB) (H-2 K^k) | Normalized average relative binding affinity(ARB) (HLA B*5401) | Normalized average relative binding affinity(ARB) (HLA B*0801) |
| --- | --- | --- | --- | --- | --- | --- | --- | --- | --- | --- | --- | --- | --- | --- | --- | --- |
| XXXXXTXXX [3064.0117] | 0.55 | 0.55 | 0.79 | 0.16 | 0.32 | 0.26 | 0.27 | 0.30 | 0.77 | 0.17 | 1.0 | 0.84 | 0.72 | 0.70 | 0.32 | 0.068 |
| XXXXXVXXX [3064.0118] | 0.51 | 0.37 | 0.78 | 0.34 | 0.20 | 0.32 | 0.22 | 0.65 | 1.0 | 0.26 | 0.63 | 0.60 | 0.72 | 0.59 | 0.17 | 0.077 |
| XXXXXWXXX [3064.0119] | 1.0 | 0.36 | 0.37 | 0.99 | 0.10 | 0.29 | 0.14 | 0.36 | 0.26 | 0.29 | 0.77 | 0.44 | 0.21 | 0.49 | 0.18 | 0.046 |
| XXXXXXAXX [3064.0121] | 0.65 | 0.69 | 0.0014 | 0.22 | 0.24 | 0.17 | 0.12 | 0.31 | 0.20 | 0.032 | 0.037 | 0.37 | 0.0045 | 0.12 | 0.45 | 0.44 |
| XXXXXXCXX [3064.0122] | 0.28 | 0.78 | 0.094 | 0.18 | 0.28 | 0.12 | 0.21 | 0.17 | 0.11 | 0.024 | 0.048 | 0.11 | 0.082 | 0.094 | 0.16 | 0.44 |
| XXXXXXDXX [3064.0123] | 0.66 | 0.10 | 0.051 | 0.12 | 0.15 | 0.051 | 0.014 | 0.049 | 0.026 | 0.022 | 0.053 | 0.37 | 0.066 | 0.030 | 0.28 | 0.072 |
| XXXXXXEXX [3064.0124] | 0.96 | 0.49 | 0.043 | 0.36 | 0.37 | 0.14 | 0.050 | 0.29 | 0.092 | 0.092 | 0.060 | 0.42 | 0.15 | 0.13 | 0.26 | 0.32 |
| XXXXXXFXX [3064.0125] | 0.72 | 0.34 | 0.077 | 0.32 | 0.43 | 0.088 | 0.18 | 0.10 | 0.44 | 0.084 | 1.0 | 0.46 | 0.018 | 1.0 | 0.17 | 0.40 |
